Data on 2 compounds can be found in article PMC9266460, “KSK-74: Dual Histamine H3 and Sigma-2 Receptor Ligand with Anti-Obesity Potential” (International Journal of Molecular Sciences, 2022).

For one assay, the target named is H3 histamine receptor (Homo sapiens, UniProt Q9Y5N1). In words: Intrinsic activity at H3R, LANCE Ultra cAMP assay. The class given is cell-based. The method, then: Intrinsic activity studies were performed using two methods, Aequoscreen and LANCE Ultra cAMP assays, according to the manufacturer of the ready-to-use cells with stable expressions of the H3 histamine receptor (Perkin Elmer).
Sequence of H3 histamine receptor (Q9Y5N1 whole entry): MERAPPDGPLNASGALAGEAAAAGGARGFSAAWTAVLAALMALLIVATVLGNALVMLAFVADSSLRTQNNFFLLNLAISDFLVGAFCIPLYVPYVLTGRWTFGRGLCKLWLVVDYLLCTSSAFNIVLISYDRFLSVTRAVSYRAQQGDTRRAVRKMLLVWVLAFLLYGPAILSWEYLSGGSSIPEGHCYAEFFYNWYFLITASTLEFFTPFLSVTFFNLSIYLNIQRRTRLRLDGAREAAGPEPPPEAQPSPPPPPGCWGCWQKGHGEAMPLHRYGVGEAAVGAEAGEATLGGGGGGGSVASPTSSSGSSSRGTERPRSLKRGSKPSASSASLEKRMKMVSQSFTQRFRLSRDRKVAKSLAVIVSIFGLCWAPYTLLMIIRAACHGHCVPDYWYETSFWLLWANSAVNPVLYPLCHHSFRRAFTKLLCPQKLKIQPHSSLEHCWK
The assay is based on the competition between the europium (Eu) chelate-labeled cAMP tracer and sample cAMP for binding sites on cAMP-specific monoclonal antibodies labeled with the ULight dye.
For orientation: In TR-FRET formats the signal depends on donor and acceptor labels being close together.

The target in another assay is T1, H3R (Homo sapiens, UniProt Q9Y5N1).
T1 construct: the Aequoscreen line co-expresses apoaequorin
T1 sequence (Q9Y5N1 whole entry): as above
In words: Intrinsic activity at H3R, range over both methods (LANCE Ultra cAMP and Aequoscreen). It is filed as cell-based. The conditions noted are these: read-out: IC50 at H3R, range depending on the assay method. The method, then: The Aequoscreen technology uses recombinant cell lines with stable co-expression of apoaequorin and a GPCR as a system to detect activation of the receptor, following the addition of an agonist, via the measurement of light emission. For the measurement, cells (frozen, ready to use) were thawed and resuspended in 10 mL of assay buffer containing 5 μM of coelenterazine h. The cell suspension was then placed in a 10 mL Falcon tube, fixed on a rotating wheel, and incubated overnight at RT° in the dark. Cells were diluted with assay buffer at 5000 cells/20 µL. Agonistic ligands 2 × (50 μL/well), diluted in assay buffer, were prepared in 1/2 area white polystyrene plates, and 50 μL of cell suspension was dispersed on the ligands using the injector. The light emission was recorded for 20 s. Cells were incubated with antagonist for 15 min at RT°. Then, 50 µL of agonist (final concentration equal to 3 × EC80) was injected into the mixture of cells and antagonist and light emission was recorded for 20 s. The LANCE Ultra cAMP assay as a homogeneous time-resolved fluorescence resonance energy transfer (TR-FRET) immunoassay is designed to measure cAMP produced upon the modulation of adenylyl cyclase activity by GPCRs. […] For the measurement, cells (frozen, ready to use) were thawed and resuspended in 4 mL of HBSS 1×. […]

The test system of assay [1] is rats fed a palatable diet. In words: Model of excessive eating: body weight, calorie intake, fat pads. The class given is in vivo, female Wistar rats. The conditions noted are these: for body weight during administration (time course): 10 mg/kg i.p. daily, persisted until the 28th day; for amount of peritoneal fat pads vs palatable diet + vehicle: KSK 10 mg/kg, end of experiment; for amount of peritoneal fat pads vs palatable diet + vehicle / body weight gain vs palatable diet + vehicle: phentermine 7 mg/kg; for calorie intake vs control group fed palatable feed: i.p. 28 days, KSK 10 mg/kg b.w., phentermine 7 mg/kg b.w.; for body weight vs palatable diet + vehicle / body weight gain vs palatable diet + vehicle: i.p. daily 4 weeks; for body weight vs palatable diet + vehicle: 1 mg/kg; for body weight gain vs palatable diet + vehicle: KSK-60/KSK-74 10 mg/kg b.w. On the procedure: Experiments were performed on female Wistar rats with an initial body weight of 140–160 g. The animals were housed in plastic cages (2 rats per cage) at a constant room temperature of 22 ± 2 °C, with a 12:12 h light/dark cycle. Water and food were available ad libitum. The randomly established experimental groups consisted of 6 rats for pharmacological studies and 3 rats for pharmacokinetic studies. All experiments were conducted in accordance with the Guide to the Care and Use of Experimental Animals, and were approved by the Jagiellonian University in Krakow Local Ethics Committee for Experiments on Animals (Permission No: 185/2017, 220/2019 and 223A/2019).
Female rats were randomly divided into several groups (n = 6) and studied for 4 weeks. The groups were as follows: standard diet + vehicle, palatable diet + vehicle, palatable diet + KSK-60 (1 mg/kg), palatable diet + KSK-60 (10 mg/kg), palatable diet + KSK-74 (1 mg/kg), palatable diet + KSK-74 (10 mg/kg), palatable diet + phentermine (7 mg/kg).
The studies for the 1 mg/kg b.w. and 10 mg/kg b.w. doses were performed at different times, so the parameters studied were compared to the respective control groups.
Rats fed a palatable diet had access to a diet consisting of milk chocolate with nuts, cheese, salted peanuts, and 7% condensed milk, and simultaneously to a standard feed (Labofeed B, Morawski Manufacturer Feed, Poland) for 4 weeks. The water was available ad libitum. Animals had access to palatable products, but also to the standard feed. Most importantly, feeding was not in any way forced, as in other models where animals were fed only a high-fat diet, or temporarily deprived of food (binge eating models). In the case of our model, rats decided themselves when, what, and how much to eat. The weight was evaluated daily. Calorie intake was evaluated three times a week. A palatable diet contained 100 g of peanuts—612 kcal; 100 mL of condensed milk—131 kcal; 100 g of milk chocolate—529 kcal; and 100 g of cheese—325 kcal. The standard diet contained 100 g of feed—280 kcal. Standard diet (fats 8%, carbohydrates 67%, proteins 25%) contained 100 g feed—280 kcal.
The palatable control group (palatable diet + vehicle) received vehicle (1% Tween 80 i.p., daily, for 4 weeks), while palatable test groups were injected i.p. with KSK-60 (1 mg or 10 mg/kg i.p, daily, for 4 weeks), KSK-74 (1 mg/kg or 10 mg/kg i.p, daily, for 4 weeks), or phentermine (7 mg/kg i.p., daily, for 4 weeks), respectively.
On the 31st day, 20 min after i.p. administration of heparin (5000 units/rat) and thiopental (70 mg/kg b.w.), animals were sacrificed, and plasma as well as peritoneal fat pads were collected (food was stopped for 6 h prior to organ, tissue, and plasma collection) for further study.

Assay [2] has as its system rats fed a palatable diet. In words: Intraperitoneal glucose tolerance test. Particulars: 10 mg/kg; for blood glucose levels after glucose load vs control animals fed palatable feed: glucose 1 g/kg i.p., 29th day. The class given is in vivo, female Wistar rats. On the procedure:
The test was conducted on the 29th day of the experiment. After twenty-eight administrations of the test compounds, the food was stopped for 20 h and then glucose tolerance was tested. Glucose (1 g/kg b.w.) was administered i.p.. Blood samples were obtained from the tail vein at the time points 0 (before glucose administration), 30, 60, and 120 min after administration. Glucose levels were measured with a glucometer (ContourTS, Bayer, Leverkusen, Germany, test stripes: ContourTS, Ascensia Diabetes care Poland Sp. z o. o., Poland, REF:84239666). The area under the curve (AUC) was calculated using the trapezoidal rule.

In a further assay the target is sigma-2 receptor. Details: method as in PMID 34908391. The conditions noted are these: Figure 1; read-out: σ2R Ki; cited from earlier work.

The term IC50 denotes the concentration needed to halve the response being measured. A word on the Ki: it is the dissociation constant of the complex between target and ligand, obtained from inhibition or displacement.

In turn, `CCC(=O)c1ccc(OCCCCCCN2CCN(c3ccncc3)CC2)cc1` [KSK-60] had an IC50 on H3 histamine receptor of 0.78 ± 0.1 nM. Also, the IC50 at H3R lay in the range of 0.8 to 1.5 nM. Also, in assay [1], the “body weight during administration (time course)” value is on record as “significant inhibition of body weight gain around the 10th day”, the “amount of peritoneal fat pads vs palatable diet + vehicle” value is listed as “fewer peritoneal fat pads”, the “calorie intake vs control group fed palatable feed” value is given as “did not significantly influence the amount of calories consumed” and the “body weight vs palatable diet + vehicle” value is listed as “No differences in body weight”. Further, the “body weight gain vs palatable diet + vehicle” value in assay [1] was “gained significantly less weight”. In assay [2], the “area under the IPGTT curve (AUC) vs rats fed high-calorie feed” value was “decreased significantly” and the “blood glucose levels after glucose load vs control animals fed palatable feed” value is “significantly lower at 30 or/and 60 min after glucose load”. In addition, the Ki at sigma-2 receptor is 110 nM.

For the compound `CCC(=O)c1ccc(OCCCCCCCCN2CCN(c3ccncc3)CC2)cc1` [KSK-74], the IC50 at H3 histamine receptor turned out to be 23.2 ± 3.6 nM. Further, on H3R, the concentration for half-maximal inhibition (IC50) is 23 to 32 nM. In assay [1] (10 mg/kg b.w.), the “milk intake vs control group fed palatable feed” value was “consumed significantly less milk in the first and second weeks”; the “peanuts intake vs control group fed palatable feed” value was “significantly less peanuts in the fourth week”. Also, in assay [1], the “body weight during administration (time course)” value is reported as “significant inhibition of body weight gain around the 10th day”, the “amount of peritoneal fat pads vs palatable diet + vehicle” value is on record as “fewer fat pads”, the “calorie intake vs control group fed palatable feed” value was “did not significantly influence the amount of calories consumed” and the “body weight vs palatable diet + vehicle” value is recorded as “No differences in body weight”. Also, the “body weight gain vs palatable diet + vehicle” value in assay [1] was “gained significantly less weight”. For the same compound, in assay [2], the “area under the IPGTT curve (AUC) vs rats fed high-calorie feed” value was “decreased significantly” and the “blood glucose levels after glucose load vs control animals fed palatable feed” value was “significantly lower at 30 or/and 60 min after glucose load”. On sigma-2 receptor, the Ki was 65.9 nM.
